Values quoted from earlier work, collected in patent publication US9233143B2, “Medicinal agent for preventing exacerbation of malignant tumor, comprising combination of natriuretic peptide receptor GC-A and GC-B agonists” (National Cerebral and Cardiovascular Center, priority 2011, dated 2016).

System: tumor cells
Details: reports by Vesely et al.; cited from earlier work

Q: Which “growth-suppressing activity on tumor (cancer) cells” value (“growth-suppressing activity” for short) does the source give for “kalliuretic peptide: peptide in reports by Vesely et al., sequence not likely to contribute to binding to GC-A (SSDRSALLKSKLRALLTAPR; Kaliuretic peptide; UniProt P01160 104-123, looked up)” here?
A: the same or stronger growth-suppressing activity

Q: For “long acting natriuretic peptide: peptide in reports by Vesely et al., sequence not likely to contribute to binding to GC-A (NPMYNAVSNADLMDFKNLLDHLEEKMPLED; Long-acting natriuretic peptide; UniProt P01160 26-55, looked up)”, which “growth-suppressing activity” value is on record?
A: the same or stronger growth-suppressing activity

Q: With “vessel dilator: peptide in reports by Vesely et al., sequence not likely to contribute to binding to GC-A (EVVPPQVLSEPNEEAGAALSPLPEVPPWTGEVSPAQR; Vessel dilator; UniProt P01160 56-92, looked up)” as the substance, how does the “growth-suppressing activity” value read?
A: the same or stronger growth-suppressing activity
